A short description of data set [1]: Microsomal stability, human liver microsomes (predicted hepatic clearance). The note with it: predicted from in vitro microsomal stability data.
Data set [2] addresses GLP-1R (Homo sapiens, UniProt P43220). The data set is described as follows: GLP-1R activation: cAMP increase in CHO cells stably expressing GLP-1R. The format is cell-based.
Setting [3] is: cAMP increase, CHO cells stably expressing GLP-1R, 10 point dose response, 30 minutes incubation, read-out: EC50.

Read-outs that look alike come from different tables or passages of the source.

Chain of GLP-1R (P43220 24-463): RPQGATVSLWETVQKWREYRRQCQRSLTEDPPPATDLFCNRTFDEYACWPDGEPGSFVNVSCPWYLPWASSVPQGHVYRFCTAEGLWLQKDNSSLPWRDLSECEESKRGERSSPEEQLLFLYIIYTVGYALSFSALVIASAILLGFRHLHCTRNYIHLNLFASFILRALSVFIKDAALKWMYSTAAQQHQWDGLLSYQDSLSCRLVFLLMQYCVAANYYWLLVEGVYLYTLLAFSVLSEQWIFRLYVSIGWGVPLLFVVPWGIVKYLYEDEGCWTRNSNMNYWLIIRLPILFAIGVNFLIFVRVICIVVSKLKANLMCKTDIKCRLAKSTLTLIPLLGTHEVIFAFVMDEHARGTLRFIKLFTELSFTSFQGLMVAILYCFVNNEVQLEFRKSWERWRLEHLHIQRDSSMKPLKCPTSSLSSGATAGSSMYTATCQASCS

Take `COCCn1c(Cc2cc(F)c(-c3cccc(OCc4ccc(C#N)cc4F)n3)cc2F)nc2ccc(-c3nn[nH]n3)cc21` [Example 104, 4-[[6-[2,5-difluoro-4-[[1-(2-methoxyethyl)-6-(2H-tetrazol-5-yl)benzimidazol-2-yl]methyl]phenyl]-2-pyridyl]oxymethyl]-3-fluoro-benzonitrile]: the “Predicted Hepatic Clearance (Pred. Cl.)” value in data set [1] is given as 0.76 L/h/kg. Besides, in data set [2] (setting [3]), the EC50 (in general, the concentration giving half of the maximal effect) turned out to be 21.4 nM.
Taken in the same sequence, the figures for `C[C@@]1(Cn2c(Cc3ccc(-c4cccc(OCc5ccc(C#N)cc5F)n4)cc3F)nc3ccc(C(=O)O)cc32)CCO1` [Example 105, (S)-2-(4-(6-((4-cyano-2-fluorobenzyl)oxy)pyridin-2-yl)-2-fluorobenzyl)-1-((2-methyloxetan-2-yl)methyl)-1H-benzo[d]imidazole-6-carboxylic acid] were 0.38 L/h/kg and 0.45 nM.
For `N#Cc1ccc(COc2nccc(-c3cc(F)c(Cc4nc5ccc(C(=O)O)nc5n4CC4(CF)CC4)cc3F)n2)c(F)c1` [Example 106, 2-(4-(2-((4-cyano-2-fluorobenzyl)oxy)pyrimidin-4-yl)-2,5-difluorobenzyl)-3-((1-(fluoromethyl)cyclopropyl)methyl)-3H-imidazo[4,5-b]pyridine-5-carboxylic acid] the same measures were less than 0.11 L/h/kg and 1.5 nM.
Taken in the same sequence, the figures for `COCCn1c(Cc2cnn(-c3cccc(OCc4ccc(C#N)cc4F)n3)c2)nc2ccc(C(=O)O)cc21` [Example 107, 2-[[1-[6-[(4-cyano-2-fluoro-phenyl)methoxy]-2-pyridyl]pyrazol-4-yl]methyl]-3-(2-methoxyethyl)benzimidazole-5-carboxylic acid] were 0.83 L/h/kg and 3640 nM.
On to `COCCn1c(Cc2ccc(-c3cccnc3OCc3ccc(C#N)cc3F)c(F)c2)nc2ccc(C(=O)O)cc21` [Example 108, 2-(4-(2-((4-cyano-2-fluorobenzyl)oxy)pyridin-3-yl)-3-fluorobenzyl)-1-(2-methoxyethyl)-1H-benzo[d]imidazole-6-carboxylic acid], for which the “Predicted Hepatic Clearance (Pred. Cl.)” value in data set [1] is listed as 0.26 L/h/kg. Besides, the EC50 in data set [2] (setting [3]) was found to be 388 nM.
`COCCn1c(Cc2ccc(-c3ccnc(OCc4ccc(C#N)cc4OC)n3)c(F)c2)nc2ccc(C(=O)O)cc21` [Example 109, 2-(4-(2-((4-cyano-2-methoxybenzyl)oxy)pyrimidin-4-yl)-3-fluorobenzyl)-1-(2-methoxyethyl)-1H-benzo[d]imidazole-6-carboxylic acid]: the “Predicted Hepatic Clearance (Pred. Cl.)” value in data set [1] is reported as 0.74 L/h/kg. The EC50 in data set [2] (setting [3]) worked out at 3.38 nM.
In the case of `COCCn1c(Cc2cc(F)c(-c3cccc(OCc4ccc(C#N)cc4F)n3)c(F)c2)nc2ccc(C(=O)O)cc21` [Example 110, 2-(4-(6-((4-cyano-2-fluorobenzyl)oxy)pyridin-2-yl)-3,5-difluorobenzyl)-1-(2-methoxyethyl)-1H-benzo[d]imidazole-6-carboxylic acid], the “Predicted Hepatic Clearance (Pred. Cl.)” value in data set [1] is 0.42 L/h/kg. The same compound yielded an EC50 in data set [2] (EC50 (nM)) of 21.8 nM.
On to `COCCn1c(Cc2ccc(-c3ccnc(OCc4ccc(C#N)cc4OC)n3)cc2F)nc2ccc(C(=O)O)cc21` [Example 112, 2-(4-(2-((4-cyano-2-methoxybenzyl)oxy)pyrimidin-4-yl)-2-fluorobenzyl)-1-(2-methoxyethyl)-1H-benzo[d]imidazole-6-carboxylic acid], for which, in data set [1], the “Predicted Hepatic Clearance (Pred. Cl.)” value is listed as 0.55 L/h/kg. Besides, the half-maximal effective concentration (EC50) in data set [2] (setting [3]) came to 3.76 nM.
Taken in the same sequence, the figures for `COCCn1c(Cc2ccc(-c3cccc(NC(=O)c4ccc(C#N)cc4F)n3)cc2F)nc2ccc(C(=O)O)cc21` [Example 113, 2-(4-(6-(4-cyano-2-fluorobenzamido)pyridin-2-yl)-2-fluorobenzyl)-1-(2-methoxyethyl)-1H-benzo[d]imidazole-6-carboxylic acid] were 0.59 L/h/kg and 2150 nM.

(Values after patent publication US11702404B2, “GLP-1R modulating compounds” (priority 2019, dated 2023).)
